The values that follow come from US20120270848A1, “Novel Compositions and Therapeutic Methods Using Same” (Galleon Pharmaceuticals, Inc., priority 2010, published 2012).

SMILES strings stand for the structures. Entries after “also recorded” stand apart in the source; their conditions may differ.

Data set [1] concerns opioid-induced respiratory depression in the rat. The experiment in a line: Opioid-induced changes in arterial blood gas parameters, arterial blood gas analysis. It counts as in vivo. The procedure: Rats with pre-cannulated jugular vein and femoral arterial catheters (for administrating drugs and obtaining blood samples respectively) were obtained from Harlan laboratories and kept at the animal facility at Galleon Pharmaceuticals until the experimental procedures. All animals experiments were carried out according to the US law on animals care and use approved by Galleon Pharmaceuticals IACUC. Each animal was dosed with morphine sulfate (10 mg/kg), dissolved in saline at a concentration of 10 mg/ml, via injection into the jugular vein over a period of 20 seconds with a 20 second flush of 0.9% NaCl saline. Prior to morphine administration, two 250 μL samples of arterial blood were aspirated from the femoral artery into a pre-heparinized syringe. The samples were analyzed on Radiometer's ABL Flex 800, where pO2, pCO2, pH, saO2 and other parameters were recorded. Aspirated volumes of arterial blood were replaced by room temperature sterile saline (˜300 μL) slowly flushed back into the femoral arterial catheter of the rodent to prevent anemia and/or dehydration. Morphine was then administered and 2 minutes later another blood sample was taken. After a period of 5 min from the administration of morphine, (−)-doxapram, (+)-doxapram or racemic doxapram (15 mg/mL) was administered via infusion into the jugular vein at a rate of 60 μL/min/300 gram rat. The infusion started at t=15 minutes and ended at t=35 minutes. Arterial blood gas analysis occurred at time points t=17, 25, 30, 37, 45, and 50 minutes. […] The small improvements in blood gas parameters seen towards the end of the experiment in the (−)-doxapram group were associated with behavioral toxicities and therefore cannot be distinguished from non-specific side effects. Results are illustrated in Table 4 and FIGS. 3-4.

Data set [2] deals with hypoxic ventilatory response in the rat. The data set can be described thus: Hypoxic ventilatory response to 12% O2, plethysmography. It counts as in vivo. The following applies: IV infusion (Table 5: 1, 3 mg/kg/min; text: 3 mg/kg/min), compared to vehicle. The procedure: Rats with a pre-cannulated jugular vein (for administrating drugs) were acclimated to plethysmography chambers for a minimum of 60 minutes, or until animals were no longer restless. Each animal was dosed with (−)-doxapram, (+)-doxapram, or racemic doxapram via infusion into the jugular vein catheter over a period of 15 minutes, at 3 mg/kg/min at 0.020 ml/min based on a 300 gram rat. After a period of 15 minutes, an isocapnic, hypoxic mixture (12% O2 balanced N2) was administered into all chambers using a gas mixer (CWE inc. GSM-3 gas mixer) for 15 minutes. After 15 minutes, the gas mixer was turned off, resulting in normal room air pumped into the chambers. Ten minutes later, the infusion pumps were turned off, and all animals were given a 15 minute recovery period, followed by a post-study analysis of rat health and behavior. […] The small increases in minute ventilation seen towards the end of the experiment in the (−)-doxapram group (i.e. T20-T55) were associated with behavioral toxicities and therefore cannot be distinguished from non-specific side effects. Results are illustrated in FIG. 5 and Table 5.

Data set [3] deals with spontaneously breathing rats. The experiment in a line: In vivo spirometry: cumulative dose-dependent ventilatory response (maximum peak minute ventilation). More on the design: species or system rat. The procedure: (§1) All surgical procedures were performed under anesthesia induced by 2% isoflurane in compressed medical grade air. With rats in supine position, the right femoral vein was catheterized using polyethylene tubing (PE-50). This catheter was used for fluid and drug administration. Simultaneously, the right femoral artery was also catheterized for monitoring blood pressure. In order to measure the respiratory parameters in spontaneously breathing rats, trachea was intubated using 13 gauge tracheal tube (2.5 mm ID, Instech Solomon, Pa.).
After establishing a stable base-line at 1.5% isoflurane, cumulative dose-dependent (1, 3, 10 and 30 mg/kg) ventilatory responses to (−)-doxapram, (+)-doxapram, or racemic doxapram were generated from spontaneously breathing rats. Maximum peak minute ventilatory (MV) values at each dose from corresponding drug were calculated and used for generating ED50 values. Results are illustrated in Table 3 and FIG. 1. All the specific ventilatory stimulant activity of racemic doxapram was associated with the (+)-enantiomer.

A short description of data set [4]: Comparative IV pharmacokinetics of a 20 min infusion. The settings on record: 20 min infusion of 3 mg/kg/min IV. It counts as in vivo. The procedure:
FIG. 9 is a set of graphs illustrating the IV pharmacokinetics of a 20-minute infusion (from 15 minutes to 35 minutes) of 3 mg/kg/min IV (+)-doxapram and (−)-doxapram. The upper panel pharmacokinetic data was plotted on a linear y-axis, the lower panel represents the same data plotted on a log y-axis.
The difference in efficacy and adverse events seen between the enantiomers is therefore due to genuine differences in the intrinsic pharmacodynamics (i.e. pharmacology and side effects profiles) of the enantiomers, as opposed to differential exposures/pharmacokinetics. Results are illustrated in FIG. 9.

Another data set deals with rats. The data set can be described thus: Observations of animal behavior and adverse effects. Type of data set: in vivo, rat. The source says:
In Examples 1-7 described above, all rats are observed for behavioral changes and adverse effects, as recognized by those skilled in the art. Such effects include central nervous system and motor effects such as impairment, sedation, and convulsive potential, and mortality. Other effects related to bodily functions are also observable and may include changes in breathing, urination, defecation, posture, and normal cage activities (i.e., grooming, exploring, eating, etc.). […]

The next data set relates to rat. The experiment in a line: Cardio-respiratory traces after IV bolus (respiratory flow, volumes, minute ventilation, blood pressure). It counts as in vivo. The procedure:
as §1
The procedure outlined in Example 1 was used herein. […] Results are illustrated in FIG. 6.
The procedure described in Example 1 was used herein to evaluate the effect of (−)-doxapram on mean arterial blood pressure (MAP) in the rat. […] Results are illustrated in FIG. 8.

Data set [5] deals with opioid-induced respiratory depression in the rat. The experiment in a line: Opioid-induced respiratory depression, plethysmography (minute ventilation). Type of data set: in vivo. The settings on record: 1, 3 mg/kg/min IV infusion after 10 mg/kg IV morphine; compared to vehicle. The procedure: All animal experiments were carried out according to the US law on animals care and use approved by Galleon Pharmaceuticals Institutional Animal Care and Use Committee (IACUC). Rats with pre-cannulated jugular vein (for administrating drugs) were acclimated to plethysmography chambers for a minimum of 60 minutes, or until animals were no longer restless. Each animal was dosed with morphine sulfate (10 mg/kg), dissolved in sterile water at a concentration of 10 mg/mL (supplied by Baxter Healthcare Corporation), via injection into the jugular vein catheter over a period of 5-10 seconds. After a period of 5 min, (−)-doxapram, (+)-doxapram, or racemic doxapram ([…]) was administered via infusion into the jugular vein at a rate of 0.020 mL/min for a 300 gram rat. Behavioral observations were made though the course of the experiment. After 20 min of infusion at 1 mg/kg/min, the infusion rates were tripled from 0.020 mL/min to 0.060 mL/min for all rats, based on body weight. After 20 minutes of infusion at this dose, the infusion pumps were turned off, and all animals were given a 20 minute recovery period, followed by a post-study analysis of rat health and behavior. […] The small increase in minute ventilation seen towards the end of the experiment in the (−)-doxapram group was associated with behavioral toxicities and therefore cannot be distinguished from non-specific side effects. […]

The mark [6] stands for this setting: 3.0 mpk/min IV infusion after morphine 10 mg/kg, vs composite vehicle group, 15 min into 20 min infusion.

In the case of `CCN1CC(CCN2CCOCC2)C(c2ccccc2)(c2ccccc2)C1=O` (single isomer, unassigned; (-)) [(−)-doxapram], the “Arterial Blood Gases - OIRD, pCO2 (mmHg) and saO2 (%): reversal of opioid-induced respiratory depression” value in data set [1] (3 mg/kg/min IV infusion after 10 mg/kg IV morphine, compared to vehicle) is reported as “does not; also recorded: Not active”. For the same compound, in data set [1] (setting [6]), the “PaCO2: % reversal” value came to 24%, the “PaO2: % reversal” value was −2%, the pH % reversal is reported as −8% and the “saO2: % reversal” value was −6%. The “Plethysmography (MV), Naïve and HVR: potentiation of hypoxic ventilatory response” value in data set [2] is on record as “did not; also recorded: Not active”. In addition, the “ED50 (mg/kg IV), increase in minute ventilation (MV)” value in data set [3] (IV bolus, cumulative doses 1, 3, 10 and 30 mg/kg, 1.5% isoflurane, maximum peak MV values) is given as greater than 200 mg/kg. The “potency vs (+)-enantiomer (times less potent)” value in data set [3] (ventilatory stimulant activity, rat IV) is “at least 100 times”. Also, in data set [4], the “plasma exposure (time course, maximum concentration, AUC, washout), enantiomer vs enantiomer” value is “directly comparable time course, maximum concentration and exposure (AUC)”. For the same compound, the “Clonic movements (animals out of group of 6)” value in the data set on rats (ABG post morphine, 3 mg/kg/min IV, 3 mg/kg) is on record as 5/6. The “Hunching, static, increased urination & defecation (animals out of group of 6)” value in the data set on rats (Pleth., 3 mg/kg/min IV, 3 mg/kg) is on record as 6/6. Further, the “Death (animals out of group of 6)” value in the data set on rats (Pleth., 30 mg/kg IV bolus, 30 mg/kg) is on record as 5/6. Further, in the data set with rats (at the doses tested, IV), the “adverse effects across the studies” value is reported as “consistently produced a variety of adverse effects”. Further, in the data set with rat (30 mg/kg IV bolus), the “effect on arterial blood pressure and arrhythmias” value is recorded as “pronounced reduction in arterial blood pressure together with a period of associated arrhythmias; also recorded: pronounced drop in blood pressure in rat, including a period of heart arrhythmias”; the “effect on respiratory flow, inspiratory and expiratory volume, minute ventilation” value is “only a minimal effect on respiratory flow, inspiratory and expiratory volume, and minute ventilation; also recorded: minimal ventilatory response”. For the same compound, the “Cardiopulmonary response: arrhythmias” value in the data set on rat (E-Phys, ≧10 mg/kg IV bolus) is recorded as “Arrhythmias”. Also, in the data set on rat (E-Phys, ≧10 mg/kg IV bolus, 10 mg/kg), the “Cardiopulmonary response: mean arterial pressure (MAP)” value is “MAP ↓↓”. Further, the “Plethysmography - OIRD (MV): reversal of opioid-induced respiratory depression” value in data set [5] was “does not; also recorded: Not active”.
